Results from patent publication US6528510B1, “HIV protease inhibitors” (Warner-Lambert Company, priority 1998, dated 2003).
pEC50, pKi: −log10 of the molar value. Read-outs that look alike come from different tables or passages of the source.

Experiments:
[1] = Cellular toxicity in uninfected CEM cells, XTT (TC50); settings: human, uninfected CEM cells (lymphocyte derived)
Experimental: (§1) Compound concentrations were 0.32, 1, 3.2, 10, 32, and 100 uM.

[2] = system: HIV infected lymphocyte derived CEM cells; settings: as disclosed by Hagen et al., J. Med. Chem. 1997; cited from earlier work
[3] = biological target: T1, Recombinant HIV-1 protease (Human immunodeficiency virus type 1 group M subtype B, UniProt P04585); experiment: HIV protease assay (Ki determination, HPLC readout of substrate III cleavage); format: biochemical
T1 construct: Recombinant HIV-1 protease (>96% purity); purchased Bachem Bioscience, Inc. (King of Prussia, Pa.)
Experimental: Recombinant HIV-1 protease (>96% purity) and HIV protease substrate III (the undecapeptide H-His-Lys-Ala-Arg-Val-Leu-Nph-Glu-Ala-Nle-Ser-NH2, 97% purity) were purchased from Bachem Bioscience, Inc. (King of Prussia, Pa.).
The methods employed follow the procedures of Tummino, et al., Archives of Biochemistry and Biophysics, 1995;316:523). […] (total volume, […]). […] The final inhibitor concentrations used were 0 (0.1, 0.2, in some experiments), 0.5, 1, 2, 5, 10, 20, 50, and 100 μM. The solution was mixed, incubated for 5 minutes and the reaction quenched by addition of trifluoracetic acid, 2% final. The (leu-p-nitro-phe) bond of the substrate is cleaved by the enzyme and substrate arid products separated by reverse-phase HPLC. Absorbance was measured at 220 nm, peak areas determined, and percentage conversion to product used to calculate percentage control (=[% conversion (+inhibitor)/% conversion (−inhibitor)]×100).

[4] = Rat blood levels after IV dosing; format: in vivo; settings: plasma, rats, IV dose of 10 mg/kg; for half-life: read-out: T 1/2 (half life) (converted)
Experimental: (§2) The procedure for pharmacokinetics analysis in dogs and rats was similar. For dog studies, two dogs received a single oral 10 mg/kg dose of the HIV protease inhibitor as a solution. The protease inhibitor was dissolve in 0.1N NaOH followed by buffering or diluting with isotonic phosphate buffer or water depending on solubility. For rat studies. two male rats received a single oral 10 mg/kg gavage dose of the HIV protease inhibitor suspended in 0.5% methylcellulose. For the IV administration, the compounds were dissolved in 0.1N sodium hydroxide at a concentration of 10 mg/ml. The IV dose was given bolus. Blood samples were collected prior to dosing and at 0.25, 0.5, 1, 1.5, 2, 3, 4, 8, 12, and 24 hours postdose. Plasma samples were analyzed for the HIV protease inhibitor using a HPLC procedure. The method involved plasma protein precipitation with acetonitrile, reverse-phase chromatographic separation of the HIV protease inhibitor and internal standard, and quantitation by UV detection. Some plasma samples were concentrated by evaporation prior to injection. Pharmacokinetic parameters were determined by noncompartmental analysis of individual rat-plasma concentration-time curves using WinNonlin. Maximum concentration (Cmax) and time for these to occur (tmax) were recorded as observed. Area under concentration-time curve (AUC) values were obtained using the linear trapezoidal rule.

[5] = as disclosed by Vander Roest et al., ICAAC 1997, relative to related polar substituted derivatives; cited from earlier work
[6] = system: HIV infected lymphocyte derived CEM cells; experiment: Cellular infection assay in CEM cells, XTT cytopathic procedure (EC50); settings: for TI (therapeutic index, TC50/EC50): CEM cells; for pEC50: read-out: Antiviral Efficacy EC50
Experimental: as §1

[7] = Rat blood levels after oral dosing; format: in vivo; settings: male, plasma, rats, oral dose of 10 mg/kg; for Cmax: read-out: Cmax (maximum concentration reached within the plasma); for half-life: read-out: T 1/2 (half life) (converted)
Experimental: as §2

[8] = Dog blood levels after oral dosing; format: in vivo; settings: plasma, dogs, oral dose of 10 mg/kg; for half-life: read-out: T 1/2 (half life) (converted)
Experimental: as §2

[9] = Mouse blood levels after oral dosing; format: in vivo, Charles River CD-1 mice; settings: CD-1, mouse, plasma, mice, oral dose of 25 mg/kg; for Cmax: read-out: Cmax (maximum concentration reached within the plasma); for half-life: read-out: T 1/2 (half life) (converted)
Experimental: Charles River CD-1 mice were dosed with a 25 mg/kg drug solution orally by gavage. For oral dosing the compounds were dissolved in 0.1N NaOH (20% final volume) and then 0.5% methylcellulose (80% final volume) was added. Blood was drawn and pooled from 5 mice at each time point via heart puncture and was placed in a 15 mL centrifuge tube containing heparin. The plasma stored in 200 μL aliquots at −80° C. until assayed.
Plasma was thawed at room temperature and then 400 μL of acetonitrile was added to each vial and vortexed. Following centrifugation the supernatant was removed and evaporated in a nitrogen evaporator at 48° C. Residue was then resolublized in 200 μL of a 75% water/25% CH3CN solution for HPLC analysis. HPLC analysis used a Zorbax RX-C8 column (4.6×150 mm) with a 25 mM potassium phosphate buffer with 0.1% TFA, pH 3.0. Mobile phases consisted of varying percentages of two buffer mixtures: Buffer A—90% buffer, 10% CH3CN, and Buffer B—30% buffer, 70% CH3CN.
A standard curve ranging from 0.5 to 50 μg/mL was used for each drug tested. Ten times final concentration solutions of drug in water were prepared from stock solutions of 1 mg/mL drug in DMSO. The final 1:10 dilution was then done in mouse plasma obtained from mice described above.

[10] = system: uninfected CEM cells; experiment: Cellular toxicity in uninfected CEM cells, XTT (TC50)
Experimental: as §1

[11] = recombinant HIV-1 protease, read-out: Inhib of HIV Protease KI
[12] = Human immunodeficiency virus 1, CCRF-CEM
[13] = read-out: Antiviral Efficacy TC50, uninfected CEM cells

Row | Compound | CC50 [1] | antiviral activity [2] | pKi [3, 11] | C0 [4] | half-life [4] | pharmacokinetics in mice [5] | TI (therapeutic index, TC50/EC50) [6] | pEC50 [6, 12] | Cmax [7] | half-life [7] | Cmax [8] | half-life [8] | Cmax [9] | half-life [9] | CC50 [10, 13] | pEC50 ([6]; HIV infected CEM cells) | pKi [3] | CC50 [10]
1 | Cc1cc(SC2=C(O)CC(CCc3ccc(O)cc3)(C(C)C)OC2=O)c(C(C)(C)C)cc1CO (stereo not shown) [Reference Agent 2, reference compound] | > 100000 nM | particularly good antiviral activity | 9.66 | 100 µM | 3.9 h | comparatively good pharmacokinetics in mice | >166 | 6.22 | 3.4 µM | 0.55 h | 40 µM | 0.52 h | 17 µM | 2 h | – | – | – | –
2 | 3-(4-Amino-2-tert-butyl-5-methyl-phenylsulfanyl)-6-(2-furan-3-yl-ethyl)-4-hydroxy-6-isopropyl-5,6-dihydro-pyran-2-one [Example 36] | – | – | 8.77 | – | – | – | 77 | – | – | – | – | – | – | – | 170000 nM | 5.66 | – | –
3 | Cc1cc(SC2=C(O)CC(CCc3ccc(N)cc3)(C(C)C)OC2=O)c(C(C)(C)C)cc1CO (stereo not shown) [Reference Agent 1, reference compound] | > 100000 nM | particularly good antiviral activity | – | 86 µM | 3.7 h | comparatively good pharmacokinetics in mice | >200 | 6.30 | 16 µM | 3.4 h | 140 µM | 1.25 h | 23 µM | 2.2 h | – | – | 9.37 | –
4 | Cc1cc(SC2=C(O)CC(CCc3cc[nH]n3)(C(C)C)OC2=O)c(C(C)(C)C)cc1N (stereo not shown) [Example 41] | – | – | 8.19 | – | – | – | 10 | – | – | – | – | – | – | – | 195000 nM | 4.70 | – | –
5 | (S)-N-[6-tert-Butyl-5-(4-hydroxy-6-isopropyl-2-oxo-6-[2-(4-hydroxy-phenyl)ethyl]-5,6-dihydro-2H-pyran-3-ylsulfanyl)-indolin-1yl]-(4-cyanophenyl)sulfonamide [Example 70] | – | – | 9.09 | – | – | – | 6 | – | – | – | – | – | – | – | 8000 nM | 5.89 | – | –
6 | Cc1cc(SC2=C(O)C[C@@](CCc3ccsc3)(C(C)C)OC2=O)c(C(C)(C)C)cc1CO [Example 12, (S)-3-(2-tert-Butyl-4-hydroxymethyl-5-methyl-phenylsulfanyl)-4-hydroxy-6-isopropyl-6-(2-thiophen-3-yl-ethyl)-5,6-dihydro-pyran-2-one] | 91000 nM | – | 10.15 | 160 µM | 12 h | – | 650 | 6.85 | 30 µM | 11.5 h | 149 µM | 1.75 h | 95 µM | 9.5 h | – | – | – | –
7 | 3-(2-Amino-5-isopropyl-benzothiazol-6-yl-sulfanyl)-6-[2-(4-fluoro-phenyl)-ethyl]-phenethyl-4-hydroxy-6-isopropyl-5,6-dihydro-pyran-2-one [Example 16] | – | – | – | – | – | – | 10.4 | – | – | – | – | – | – | – | – | 4.96 | – | 114000 nM
